Assay results as given in ChEMBL document CHEMBL1921774, “Evaluation of 18F-labeled benzodioxine piperazine-based dopamine D4 receptor ligands: lipophilicity as a determinate of nonspecific binding” (J Med Chem, 2011).

Tests used:
Heart [1] = test: Biodistribution in NMRI mouse heart at 1.1 to 2.6 MBq, iv after 5 mins by gamma counting; assay type: ADME, organism-based; conditions: in vivo
Brain [2] = test: Biodistribution in NMRI mouse brain at 1.1 to 2.6 MBq, iv after 5 mins by gamma counting; assay type: ADME, organism-based; conditions: in vivo
Lung [3] = test: Biodistribution in NMRI mouse lung at 1.1 to 2.6 MBq, iv after 5 mins by gamma counting; assay type: ADME, organism-based; conditions: in vivo
Liver [4] = test: Biodistribution in NMRI mouse liver at 1.1 to 2.6 MBq, iv after 5 mins by gamma counting; assay type: ADME, organism-based; conditions: in vivo
Kidney [5] = test: Biodistribution in NMRI mouse kidney at 1.1 to 2.6 MBq, iv after 5 mins by gamma counting; assay type: ADME, organism-based; conditions: in vivo
Spleen [6] = test: Biodistribution in NMRI mouse spleen at 1.1 to 2.6 MBq, iv after 5 mins by gamma counting; assay type: ADME, organism-based; conditions: in vivo
Intestine [7] = test: Biodistribution in NMRI mouse intestine at 1.1 to 2.6 MBq, iv after 5 mins by gamma counting; assay type: ADME, organism-based; conditions: in vivo
Pancreas [8] = test: Biodistribution in NMRI mouse pancreas at 1.1 to 2.6 MBq, iv after 5 mins by gamma counting; assay type: ADME, organism-based; conditions: in vivo
Bone [9] = test: Biodistribution in NMRI mouse bone at 1.1 to 2.6 MBq, iv after 5 mins by gamma counting; assay type: ADME, organism-based, Bone element; conditions: in vivo
Blood [10] = test: Biodistribution in NMRI mouse blood at 1.1 to 2.6 MBq, iv after 5 mins by gamma counting; assay type: ADME, organism-based; conditions: in vivo
Heart [11] = test: Biodistribution in NMRI mouse heart at 1.1 to 2.6 MBq, iv after 10 mins by gamma counting; assay type: ADME, organism-based; conditions: in vivo
Brain [12] = test: Biodistribution in NMRI mouse brain at 1.1 to 2.6 MBq, iv after 10 mins by gamma counting; assay type: ADME, organism-based; conditions: in vivo
Lung [13] = test: Biodistribution in NMRI mouse lung at 1.1 to 2.6 MBq, iv after 10 mins by gamma counting; assay type: ADME, organism-based; conditions: in vivo
Liver [14] = test: Biodistribution in NMRI mouse liver at 1.1 to 2.6 MBq, iv after 10 mins by gamma counting; assay type: ADME, organism-based; conditions: in vivo
Kidney [15] = test: Biodistribution in NMRI mouse kidney at 1.1 to 2.6 MBq, iv after 10 mins by gamma counting; assay type: ADME, organism-based; conditions: in vivo
Spleen [16] = test: Biodistribution in NMRI mouse spleen at 1.1 to 2.6 MBq, iv after 10 mins by gamma counting; assay type: ADME, organism-based; conditions: in vivo
Intestine [17] = test: Biodistribution in NMRI mouse intestine at 1.1 to 2.6 MBq, iv after 10 mins by gamma counting; assay type: ADME, organism-based; conditions: in vivo
Pancreas [18] = test: Biodistribution in NMRI mouse pancreas at 1.1 to 2.6 MBq, iv after 10 mins by gamma counting; assay type: ADME, organism-based; conditions: in vivo
Bone [19] = test: Biodistribution in NMRI mouse bone at 1.1 to 2.6 MBq, iv after 10 mins by gamma counting; assay type: ADME, organism-based, Bone element; conditions: in vivo
Blood [20] = test: Biodistribution in NMRI mouse blood at 1.1 to 2.6 MBq, iv after 10 mins by gamma counting; assay type: ADME, organism-based; conditions: in vivo
Heart [21] = test: Biodistribution in NMRI mouse heart at 1.1 to 2.6 MBq, iv after 15 mins by gamma counting; assay type: ADME, organism-based; conditions: in vivo, 0.25 h
Brain [22] = test: Biodistribution in NMRI mouse brain at 1.1 to 2.6 MBq, iv after 15 mins by gamma counting; assay type: ADME, organism-based; conditions: in vivo, 0.25 h
Lung [23] = test: Biodistribution in NMRI mouse lung at 1.1 to 2.6 MBq, iv after 15 mins by gamma counting; assay type: ADME, organism-based; conditions: in vivo, 0.25 h
Liver [24] = test: Biodistribution in NMRI mouse liver at 1.1 to 2.6 MBq, iv after 15 mins by gamma counting; assay type: ADME, organism-based; conditions: in vivo, 0.25 h
Kidney [25] = test: Biodistribution in NMRI mouse kidney at 1.1 to 2.6 MBq, iv after 15 mins by gamma counting; assay type: ADME, organism-based; conditions: in vivo, 0.25 h
Spleen [26] = test: Biodistribution in NMRI mouse spleen at 1.1 to 2.6 MBq, iv after 15 mins by gamma counting; assay type: ADME, organism-based; conditions: in vivo, 0.25 h
Intestine [27] = test: Biodistribution in NMRI mouse intestine at 1.1 to 2.6 MBq, iv after 15 mins by gamma counting; assay type: ADME, organism-based; conditions: in vivo, 0.25 h
Pancreas [28] = test: Biodistribution in NMRI mouse pancreas at 1.1 to 2.6 MBq, iv after 15 mins by gamma counting; assay type: ADME, organism-based; conditions: in vivo, 0.25 h
Bone [29] = test: Biodistribution in NMRI mouse bone at 1.1 to 2.6 MBq, iv after 15 mins by gamma counting; assay type: ADME, organism-based, Bone element; conditions: in vivo, 0.25 h
Blood [30] = test: Biodistribution in NMRI mouse blood at 1.1 to 2.6 MBq, iv after 15 mins by gamma counting; assay type: ADME, organism-based; conditions: in vivo, 0.25 h
Heart [31] = test: Biodistribution in NMRI mouse heart at 1.1 to 2.6 MBq, iv after 30 mins by gamma counting; assay type: ADME, organism-based; conditions: in vivo, 0.5 h
Brain [32] = test: Biodistribution in NMRI mouse brain at 1.1 to 2.6 MBq, iv after 30 mins by gamma counting; assay type: ADME, organism-based; conditions: in vivo, 0.5 h
Lung [33] = test: Biodistribution in NMRI mouse lung at 1.1 to 2.6 MBq, iv after 30 mins by gamma counting; assay type: ADME, organism-based; conditions: in vivo, 0.5 h
Liver [34] = test: Biodistribution in NMRI mouse liver at 1.1 to 2.6 MBq, iv after 30 mins by gamma counting; assay type: ADME, organism-based; conditions: in vivo, 0.5 h
Kidney [35] = test: Biodistribution in NMRI mouse kidney at 1.1 to 2.6 MBq, iv after 30 mins by gamma counting; assay type: ADME, organism-based; conditions: in vivo, 0.5 h
Spleen [36] = test: Biodistribution in NMRI mouse spleen at 1.1 to 2.6 MBq, iv after 30 mins by gamma counting; assay type: ADME, organism-based; conditions: in vivo, 0.5 h
Intestine [37] = test: Biodistribution in NMRI mouse intestine at 1.1 to 2.6 MBq, iv after 30 mins by gamma counting; assay type: ADME, organism-based; conditions: in vivo, 0.5 h
Pancreas [38] = test: Biodistribution in NMRI mouse pancreas at 1.1 to 2.6 MBq, iv after 30 mins by gamma counting; assay type: ADME, organism-based; conditions: in vivo, 0.5 h
Bone [39] = test: Biodistribution in NMRI mouse bone at 1.1 to 2.6 MBq, iv after 30 mins by gamma counting; assay type: ADME, organism-based, Bone element; conditions: in vivo, 0.5 h
Blood [40] = test: Biodistribution in NMRI mouse blood at 1.1 to 2.6 MBq, iv after 30 mins by gamma counting; assay type: ADME, organism-based; conditions: in vivo, 0.5 h
Serum = test: Metabolic stability in NMRI mouse serum assessed as remaining radioactivity at 1.1 to 2.6 MBq, iv by TLC analysis; assay type: ADME, organism-based; conditions: in vivo
Brain [41] = test: Drug metabolism in NMRI mouse brain at […], iv measured 10 mins post injection; assay type: ADME, organism-based; conditions: in vivo
[42] = Chemical stability of the compound on silica gel on TLC plate assessed as half life; assay type: physicochemical
[43] = Chemical stability of the compound on […] oxide gel on TLC plate assessed as half life; assay type: physicochemical

`[18F]c1ccc(CN2CCN(c3ccc4c(c3)OCCO4)CC2)cn1` showed a Drug uptake (Heart [1]) of 1.8 % ID/g, a Drug uptake (Brain [2]) of 4.93 % ID/g and a Drug uptake (Lung [3]) of 12.99 % ID/g. The Drug uptake (Liver [4]) was 4.13 % ID/g, the Drug uptake (Kidney [5]) was 8.23 % ID/g and the Drug uptake (Spleen [6]) was 4.42 % ID/g. For the same molecule, the Drug uptake (Intestine [7]) was 2.16 % ID/g, the Drug uptake (Pancreas [8]) was 8.36 % ID/g and the Drug uptake (Bone [9]) was 2.03 % ID/g. For the same molecule, the Drug uptake (Blood [10]) was 1.62 % ID/g, the Drug uptake (Heart [11]) was 0.52 % ID/g and the Drug uptake (Brain [12]) was 2.85 % ID/g. For the same molecule, the Drug uptake (Lung [13]) was 4.84 % ID/g, the Drug uptake (Liver [14]) was 6.78 % ID/g and the Drug uptake (Kidney [15]) was 5.86 % ID/g. It also gave a Drug uptake (Spleen [16]) of 3.6 % ID/g, a Drug uptake (Intestine [17]) of 2.68 % ID/g and a Drug uptake (Pancreas [18]) of 11.1 % ID/g. For the same molecule, the Drug uptake (Bone [19]) was 2.54 % ID/g, the Drug uptake (Blood [20]) was 1.29 % ID/g and the Drug uptake (Heart [21]) was 0.58 % ID/g. For the same molecule, the Drug uptake (Brain [22]) was 2.27 % ID/g, the Drug uptake (Lung [23]) was 4.79 % ID/g and the Drug uptake (Liver [24]) was 5.67 % ID/g. The Drug uptake (Kidney [25]) was 4.67 % ID/g, the Drug uptake (Spleen [26]) was 3.19 % ID/g and the Drug uptake (Intestine [27]) was 2.51 % ID/g. For the same molecule, the Drug uptake (Pancreas [28]) was 6.88 % ID/g, the Drug uptake (Bone [29]) was 2.7 % ID/g and the Drug uptake (Blood [30]) was 1.23 % ID/g. For the same molecule, the Drug uptake (Heart [31]) was 1.13 % ID/g, the Drug uptake (Brain [32]) was 1.47 % ID/g and the Drug uptake (Lung [33]) was 2.68 % ID/g. For the same molecule, the Drug uptake (Liver [34]) was 7.79 % ID/g, the Drug uptake (Kidney [35]) was 6.03 % ID/g and the Drug uptake (Spleen [36]) was 3.13 % ID/g. The Drug uptake (Intestine [37]) was 4.47 % ID/g, the Drug uptake (Pancreas [38]) was 7.43 % ID/g and the Drug uptake (Bone [39]) was 0.93 % ID/g. For the same molecule, the Drug uptake (Blood [40]) was 0.53 % ID/g, the Stability (Serum) was greater than 98% and the Drug metabolism (Brain [41]) was “Active”. It also gave a half-life [42] of 15 min and a half-life [43] of 50 min.
